Reference: patent publication US20210299076A1, “AMINO ACID FORMULATIONS AND USES THEREOF” (University of Florida Research Foundation, Incorporated, priority 2012, published 2021)
Values joined by “and” are separate entries in the source; they are usually repeats but may differ in a detail not shown here. Equal entries are not always repeated. “Also recorded” adds a separate entry of the source.

Tests used:
ileum (HCO3− secretion) = experiment: pH stat HCO3− secretion in ileum; type: cell-based, mouse; details: for Effect on lumen Cl−-independent HCO3− secretion stimulated by glucose: 100 μM on lumen side, 6 mM glucose
Experimental: pH stat studies are performed to determine whether HCO3^− secretion contributes to the unaccounted portion of the Isc. At least two modes of HCO3^− secretion in the mouse small intestine have been identified by the present inventors: 1) Cl^−-dependent, electroneutral Cl^−—HCO3^− exchange, and 2) Cl^−-independent, electrogenic HCO3^− secretion. […] Specifically, HCO3^−-free, poorly buffered solution is added to both sides of the tissues mounted in an Ussing chamber and both sides of the tissues are bubbled with 100% O2. Minimal HCO3^− secretion (0.1±0.01 mEq.h^−1.cm^−2, n=12) is recorded under such conditions. Subsequent addition of HCO3^−-containing buffered solution to the basolateral side and bubbling with 95% O2 and 5% CO2 on that side results in significant HCO3^− secretion 3.8±0.2 mEq.h^−1.cm^−2 (n=9). To determine whether lumen Cl^−-independent HCO3^− secretion plays a role in HCO3^− secretion (in the absence of lumen glucose), pH stat experiments are performed in the absence of lumen Cl^−. In the absence of lumen Cl^−, minimal HCO3^− secretion is recorded (0.4±0.1 pEq.h^−1.cm^−2) (FIG. 5A). […] The HCO3^− secretion in the presence of glucose could be due to a lumen Cl^−-dependent, electroneutral Cl—HCO3^− exchange or a lumen Cl^−-independent anion channel-mediated HCO3^− secretion. To assess the mechanism of glucose-stimulated HCO3^− secretion, glucose is added to the mucosal side.

mouse ileum = experiment: Bio-electric measurement of short-circuit current (Isc) in ileal sheets, Ussing chamber; type: cell-based; details: for Effect on glucose- or 3-OMG-stimulated increase in Isc: tissues pre-treated with H-89
Description: (§1) Normally fed, 8-week-old, male NIH Swiss mice are sacrificed by CO2 inhalation, followed by cervical dislocation. The small intestine is gently removed, and the segment is washed and flushed in ice-cold Ringer's solution. Then the mucosa is separated from the serosa and the muscular layers by striping through the submucosal plane as previously described (Zhang et al. (2007) J Physiol 581(3):1221-1233). Following exsanguinations, ileal mucosa is obtained from a 10 cm segment close to the caecum. All experiments are approved by the University of Florida Institutional Animal Care and Use Committee.
Ion transport studies are performed on ileal sheets. Tissues are then mounted in between the two halves of an Ussing type-Lucite chamber with 0.3 cm^−2 exposed surface areas (P2304, Physiologic Instruments, San Diego, Calif., USA). Regular Ringer's solution (115 mM NaCl, 25 mM NaHCO3, 4.8 mM K2HPO4, 2.4 mM KH2PO4, 1.2 mM MgCl2 and 1.2 mM CaCl2) bubbled with 95% O2: 5% CO2 is used bilaterally as bathing solution for the tissues and the temperature is maintained constant at 37° C. The chambers are balanced to eliminate osmotic and hydrostatic forces. Resistance due to fluid is also compensated. The tissues are allowed to stabilize. The basal short-circuit current (Isc) and the corresponding conductance (G) are recorded using a computer controlled voltage/current clamp device (VCC MC-8, Physiologic Instruments).
Tissues paired with similar conductance and current are treated with or without 100 μM H-89 (Santa Cruz Biotechnology, Inc, Santa Cruz, Calif.), an irreversible protein kinase A (PKA) inhibitor. The tissues are incubated with H-89 for 30 minutes. Increasing concentrations of glucose (0.015-8 mM) are added every 5 minutes and the peak current is noted. Saturation kinetic constant is calculated for the corresponding Km and Vmax for treated and untreated tissues.
To investigate whether inhibition of glucose transport abolishes PKA-sensitive current, experiments are conducted using phlorizin (Santa Cruz Biotechnology, Inc, Santa Cruz, Calif., USA), a reversible competitive inhibitor of SGLT1. Specifically, ileal tissues mounted in Ussing chamber are treated with 100 μM phlorizin on the lumen side and glucose saturation kinetic studies are conducted.

SGLT1 = molecular target: T1, SGLT1 (Mus musculus, UniProt Q8C3K6); experiment: Saturation kinetics of Na+-coupled glucose / 3-OMG transport (Isc, Ussing chamber, ileal sheets); type: cell-based
T1 construct: from tissue; host or cells: ileal mucosa of NIH Swiss mice
T1 sequence (Q8C3K6 1-665): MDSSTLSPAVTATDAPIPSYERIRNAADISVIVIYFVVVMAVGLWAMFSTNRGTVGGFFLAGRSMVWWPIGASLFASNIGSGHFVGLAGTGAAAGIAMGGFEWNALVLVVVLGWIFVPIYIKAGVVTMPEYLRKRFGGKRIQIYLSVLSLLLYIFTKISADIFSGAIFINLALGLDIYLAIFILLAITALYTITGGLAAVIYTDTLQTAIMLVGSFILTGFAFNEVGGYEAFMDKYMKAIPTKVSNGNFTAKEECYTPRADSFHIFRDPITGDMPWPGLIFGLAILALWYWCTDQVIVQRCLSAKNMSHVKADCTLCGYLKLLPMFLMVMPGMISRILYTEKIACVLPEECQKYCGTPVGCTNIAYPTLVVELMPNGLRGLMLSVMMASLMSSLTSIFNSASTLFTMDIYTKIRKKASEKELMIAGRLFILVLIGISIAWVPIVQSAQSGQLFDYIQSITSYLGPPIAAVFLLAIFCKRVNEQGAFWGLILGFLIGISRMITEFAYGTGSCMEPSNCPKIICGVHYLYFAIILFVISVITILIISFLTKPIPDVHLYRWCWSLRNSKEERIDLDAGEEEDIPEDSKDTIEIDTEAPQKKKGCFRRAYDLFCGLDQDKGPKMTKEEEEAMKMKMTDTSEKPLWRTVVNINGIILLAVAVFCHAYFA
Description: as §1
(§2) Ion transport studies are performed on ileal sheets. Tissues are then mounted in between the two halves of an Ussing type-Lucite chamber with 0.3 cm^−2 exposed surface areas (P2304, Physiologic Instruments, San Diego, Calif., USA). […] The basal short-circuit current (Isc) and the corresponding conductance (G) are recorded using a computer controlled voltage/current clamp device (VCC MC-8, Physiologic Instruments).
(§3) Tissues paired with similar conductance and current are treated with or without 100 μM H-89 (Santa Cruz Biotechnology, Inc, Santa Cruz, Calif.), an irreversible protein kinase A (PKA) inhibitor. […] Saturation kinetic constant is calculated for the corresponding Km and Vmax for treated and untreated tissues. […]

Caco-2 cells = experiment: Confocal Ca2+ fluorescence microscopy (Fluo-8) in Caco-2 cells; type: cell-based
Experimental: Caco-2 cells are obtained from ATTC and cultured in Dulbecoo's modified Eagle's medium supplemented with 10% fetal calf serum (FCS) and 1% nonessential amino acids at 37° C. and 5% CO2. Caco-2 cells are passaged for 20-25 times and are seeded (2×10^5 cells/dish) on 5 cm petri-dishes and grown until 80% confluence, when the FCS concentration is changed to 5%. Cells are grown for another 10 days before they are used for functional studies.
Caco2 cells grown in 25 mm round coverslips are mounted on the bath chamber RC-21BR attached to series 20 stage adapter (Warner Instruments, CT USA). […] Fluorescence is recorded by argon lasers with excitation at 488 nm and emission at 515 nm. […] Changes are recorded and fluorescence is measured for various cells. […]
To determine the role of intracellular Ca^2+ in glucose-stimulated increase in Isc, intracellular Ca^2+ level is measured in the presence of different concentrations of glucose and 3-OMG, respectively, and in the presence of BAPTA-AM (1,2-bis(o-aminophenoxy)ethane-N,N,N′,N′-tetraacetic acid)—an intracellular calcium-specific chelator. The Ca^2+ responses to glucose and 3-OMG in cultured Caco2 cells loaded with the Ca^2+ indicator fluo 8 are monitored by laser scanning confocal microscopy. […] The mean peak amplitude of calcium fluorescence (F/Fo) with 0.6 mM glucose is calculated to be 1.32±0.1 (n=10).

[1] = system: intracellular cAMP in ileal epithelial cells; experiment: Colorimetric intracellular cAMP measurement in ileal villus and crypt cells; type: cell-based, mouse; details: villus cells
Experimental: Freshly isolated mucosal scrapings of ileal epithelial cells are washed three times in Ringer's solution containing 1.2 mM Ca^2+ at 37° C. […] Cells are treated with 0.1 M HCl to stop endogenous phosphodiesterase activity. The lysates are then used for cAMP assay using cAMP direct immunoassay kit (Calbiochem, USA). The quantitative assay of cAMP uses a polyclonal antibody to cAMP that binds to cAMP in samples in a competitive manner. After a simultaneous incubation at room temperature, the excess reagents are washed away and substrates are added. After a short incubation time, the reaction is stopped and the yellow color generated is read at 405 nm. The intensity of the color is inversely proportional to the concentration of cAMP in standards and samples. cAMP levels are standardized to protein levels from respective fractions and expressed in pmol (mg protein)^−1. Forskolin treated cells are used as a positive control. Glucose and forskolin treated cells are incubated for 45 minutes. All the assays are performed in triplicate and repeated until n=4 different mice.

[2] = substrate: CO[C@@H]([C@H](O)[C@H](O)CO)[C@@H](O)C=O; experiment: Saturation kinetics of Na+-coupled glucose / 3-OMG transport (Isc, Ussing chamber, ileal sheets); type: cell-based, mouse; details: 37.0 °C
Description: as §1, §2, §3

[3] = FIG. 5B, lumen Cl− present, 100 μM DIDS, 10 μM NPPB

Q: For `O=S(=O)(O)c1cc(N=C=S)ccc1C=Cc1ccc(N=C=S)cc1S(=O)(=O)O` [DIDS, 4,4′-diisothiocyano-2,2′-stilbenedisulfonic acid], which “Effect on HCO3− secretion in the absence of glucose” value (ileum (HCO3− secretion); [3]) is on record?
A: abolishes HCO3^− secretion

Q: `COc1ccc(Cl)cc1C(=O)NCCc1ccc(S(=O)(=O)NC(=O)NC2CCCCC2)cc1` [Glibenclamide, glibenclamide] was tested. Which “Effect on lumen Cl−-independent HCO3− secretion stimulated by glucose” value (ileum (HCO3− secretion)) did it give?
A: inhibits

Q: How did the “Effect on Isc” value (mouse ileum; 10 μM on mucosal side of small intestine) turn out when `N=C(N)NC(=O)c1nc(Cl)c(N)nc1N` [amiloride] was run?
A: no effect

Q: `O=C(CCc1ccc(O)cc1)c1c(O)cc(O)cc1O[C@@H]1O[C@H](CO)[C@@H](O)[C@H](O)[C@H]1O` [phlorizin] was tested. Which “Effect on glucose- and/or 3-OMG-stimulated increase in Isc” value (mouse ileum; 100 μM phlorizin on lumen side) did it give?
A: no response; also recorded: completely abolished

Q: For `O=C(O)c1cc([N+](=O)[O-])ccc1NCCCc1ccccc1` [NPPB, 5-nitro-2-(3-phenylpropylamino)-benzoic acid], which “Effect on lumen Cl−-independent HCO3− secretion stimulated by glucose” value (ileum (HCO3− secretion)) is on record?
A: inhibits

Q: And the “Effect on HCO3− secretion in the absence of glucose” value (ileum (HCO3− secretion); [3])?
A: does not have any inhibitory effect

Q: What about the “Effect on HCO3− secretion in the presence of 6 mM glucose” value (ileum (HCO3− secretion); [3]) of the same molecule?
A: inhibits

Q: `CO[C@@H]([C@H](O)[C@H](O)CO)[C@@H](O)C=O` [Formulation 3-OMG, 3-O-methylglucose] was tested. Which “HCO3− secretion” value (ileum (HCO3− secretion); 6 mM 3-OMG, absence of lumen and bath HCO3−) did it give?
A: 0.1±0.03 μEq.h^−1.cm^−2

Q: And the Vmax (SGLT1; Table 1, no PKA inhibitor, n = 8 tissues)?
A: 2.7 ± 0.1

Q: What about the Vmax (SGLT1; Table 1, with H-89, n = 8 tissues) of the same molecule?
A: 1.4 ± 0.1

Q: What about the “Mean peak amplitude of calcium fluorescence (F/Fo)” value (Caco-2 cells; 0.6 mM in bath medium, n=10) of the same molecule?
A: 1.2±0.1 and 1.2±0.2

Q: And the “Mean peak amplitude of calcium fluorescence (F/Fo)” value (Caco-2 cells; 6 mM in bathing medium)?
A: 1.5±0.1

Q: What about the “Intracellular cAMP level compared to 6 mM glucose” value ([1]; 3-OMG 6 mM, P<0.01) of the same molecule?
A: significantly higher

Q: What about the “Intracellular cAMP level” value ([1]; 3-OMG 0.6 and 6 mM, 45 minutes) of the same molecule?
A: significant increase

Q: `O=S(=O)(NCCNC/C=C/c1ccc(Br)cc1)c1cccc2cnccc12` [Formulation H-89] was tested. Which “Effect on glucose- or 3-OMG-stimulated increase in Isc” value (mouse ileum) did it give?
A: significant decrease in Isc

Q: What about the “Effect on glucose- or 3-OMG-stimulated increase in Isc” value (mouse ileum; listed as H89) of the same molecule?
A: significant reduction

B1: SGLT1 (Mus musculus) (protein)
chain: MDSSTLSPAVTATDAPIPSYERIRNAADISVIVIYFVVVMAVGLWAMFSTNRGTVGGFFLAGRSMVWWPIGASLFASNIGSGHFVGLAGTGAAAGIAMGGFEWNALVLVVVLGWIFVPIYIKAGVVTMPEYLRKRFGGKRIQIYLSVLSLLLYIFTKISADIFSGAIFINLALGLDIYLAIFILLAITALYTITGGLAAVIYTDTLQTAIMLVGSFILTGFAFNEVGGYEAFMDKYMKAIPTKVSNGNFTAKEECYTPRADSFHIFRDPITGDMPWPGLIFGLAILALWYWCTDQVIVQRCLSAKNMSHVKADCTLCGYLKLLPMFLMVMPGMISRILYTEKIACVLPEECQKYCGTPVGCTNIAYPTLVVELMPNGLRGLMLSVMMASLMSSLTSIFNSASTLFTMDIYTKIRKKASEKELMIAGRLFILVLIGISIAWVPIVQSAQSGQLFDYIQSITSYLGPPIAAVFLLAIFCKRVNEQGAFWGLILGFLIGISRMITEFAYGTGSCMEPSNCPKIICGVHYLYFAIILFVISVITILIISFLTKPIPDVHLYRWCWSLRNSKEERIDLDAGEEEDIPEDSKDTIEIDTEAPQKKKGCFRRAYDLFCGLDQDKGPKMTKEEEEAMKMKMTDTSEKPLWRTVVNINGIILLAVAVFCHAYFA
notes: Ion transport studies are performed on ileal sheets; from tissue; host or cells: ileal mucosa of NIH Swiss mice
Q: Which Km ([2]; other: Table 1, no PKA inhibitor, n = 8 tissues) does the source give for B1 here?
A: 200 µM

Q: And the Km ([2]; other: increasing lumen concentrations up to 8 mM, 140 mM Na+, no inhibitor)?
A: 220 ± 70 µM
